The values that follow come from PMC8765251, “Orally administered intelligent self-ablating nanoparticles: a new approach to improve drug cellular uptake and intestinal absorption” (Drug Delivery, 2022).

Where two headings read alike, the source gives them in different places.

The term AUC denotes the area under the concentration-time curve, a measure of exposure.

A short description of the series: Pharmacokinetic study. In kind it is in vivo. To be noted: SD rats; for AUC: serum liraglutide by ELISA, n = 5/group, mean ± SD. How it is done:
SD rats (GemPharmatech Co., Ltd.) weighing 200–220 g were fasted overnight and randomly divided into five groups(n = 5/group): […] The first four groups were administered orally. After a single administration, blood was collected and centrifuged, and serum was collected. An ELISA Kit for liraglutide was used to measure the blood concentration of liraglutide. The assay was performed according to the instructions of the ELISA Kit for liraglutide. The processed samples were tested using a microplate reader (CYT5MV microplate reader, BioTek USA Botten Instruments Co., Ltd.), and the drug concentration was calculated by plotting the curve.

On to `CCCCCCCCCCCCCCCC(=O)N[C@@H](CCC(=O)NCCCC[C@H](NC(=O)[C@H](C)NC(=O)[C@H](C)NC(=O)[C@H](CCC(N)=O)NC(=O)CNC(=O)[C@H](CCC(=O)O)NC(=O)[C@H](CC(C)C)NC(=O)[C@H](Cc1ccc(O)cc1)NC(=O)[C@H](CO)NC(=O)[C@H](CO)NC(=O)[C@@H](NC(=O)[C@H](CC(=O)O)NC(=O)[C@H](CO)NC(=O)[C@@H](NC(=O)[C@H](Cc1ccccc1)NC(=O)[C@@H](NC(=O)CNC(=O)[C@H](CCC(=O)O)NC(=O)[C@H](C)NC(=O)[C@@H](N)Cc1cnc[nH]1)[C@@H](C)O)[C@@H](C)O)C(C)C)C(=O)N[C@@H](CCC(=O)O)C(=O)N[C@@H](Cc1ccccc1)C(=O)N[C@H](C(=O)N[C@@H](C)C(=O)N[C@@H](Cc1c[nH]c2ccccc12)C(=O)N[C@@H](CC(C)C)C(=O)N[C@H](C(=O)N[C@@H](CCCNC(=N)N)C(=O)NCC(=O)N[C@@H](CCCNC(=N)N)C(=O)NCC(=O)O)C(C)C)[C@@H](C)CC)C(=O)O` [liraglutide], for which the “BR (relative bioavailability)” value is, setting by setting: (oral (i.g.) versus subcutaneous liraglutide, dose-normalised AUC) 5.37%; (subcutaneous injection, the reference) 100%. In addition, the AUC (single oral administration) was 1.06118 ± 0.05655 ng·h/mL and the AUC (Sprague-Dawley, rat, sc, single subcutaneous injection, read-out: AUC) came to 1.98 ± 0.109 ng·h/mL.
